Source: patent publication US8785499B2 (priority 2009, dated 2014)

Tests used:
ecNadD = ecNadD (Escherichia coli (strain K12), UniProt P0A752); experiment: biochemical; type: biochemical; details: for inhibition at 100 µM: read-out: INHIBITION (%) E. coli; for IC50: IC50 ecNadD
baNadD = baNadD (Bacillus anthracis, UniProt C3L5T6); experiment: biochemical; type: biochemical; details: for inhibition at 50 µM: read-out: INHIBITION (%) B. anthracis; for IC50: IC50 baNadD
Sequence of baNadD (C3L5T6 whole entry, looked up): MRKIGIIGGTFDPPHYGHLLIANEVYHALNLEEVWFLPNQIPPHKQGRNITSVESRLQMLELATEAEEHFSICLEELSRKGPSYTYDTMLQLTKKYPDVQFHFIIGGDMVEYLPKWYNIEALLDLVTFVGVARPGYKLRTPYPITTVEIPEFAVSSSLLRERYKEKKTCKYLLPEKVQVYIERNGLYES

Compound	inhibition at 100 µM (ecNadD) [%]	inhibition at 50 µM (baNadD) [%]	IC50 (ecNadD) [µM]	IC50 (baNadD) [µM]	[…]. coli (ecNadD) [%]	[…]. anthracis (baNadD) [%]
O=C1Nc2ccccc2/C1=C/NCc1ccccc1 [15_16]	11	6				
O=C1Nc2ccccc2/C1=C/Nc1ccccc1F [15_17]	11	22				
CSc1cccc(N/C=C2\C(=O)Nc3ccccc32)c1 [15_18]	11	24				
Cc1ccc(N/C=C2\C(=O)Nc3ccccc32)c(Cl)c1 [15_19]	11	14				
Cc1cccc(N/C=C2\C(=O)Nc3ccccc32)n1 [15_20]	11	8				
Cc1cc(C)c(N/C=C2\C(=O)Nc3ccccc32)c(C)c1 [15_21]	10	30				
O=C1Nc2ccccc2/C1=C/Nc1ccc(F)cc1F [15_22]	10	28				
Cc1cc(C)cc(N/C=C2\C(=O)Nc3ccccc32)c1 [15_23]	10	32				
CCc1ccc(N/C=C2\C(=O)Nc3ccccc32)cc1 [15_24]	9	17				
COc1ccc(N/C=C2\C(=O)Nc3ccccc32)cc1 [15_25]	9	16				
O=C1Nc2ccccc2/C1=C/Nc1ccccc1Br [15_26]	8	8				
CCc1ccccc1N/C=C1\C(=O)Nc2ccccc21 [15_27]	8	42	> 200	> 200		
Cc1cccc(N/C=C2\C(=O)Nc3ccccc32)c1 [15_28]	8	24	> 200	> 200		
Cc1ccc(N/C=C2\C(=O)Nc3ccccc32)cc1 [15_29]	7	38				
CC(C)c1ccc(N/C=C2\C(=O)Nc3ccccc32)cc1 [15_30]	7	42				
Cc1ccccc1N/C=C1\C(=O)Nc2ccccc21 [15_31]	7	27	118	112		
O=C1Nc2ccccc2/C1=C/NCCc1ccccc1 [15_32]	7	4				
O=C1Nc2ccccc2/C1=C/NC1CCCCC1 [15_33]	6	15				
CC(C)N/C=C1\C(=O)Nc2ccccc21 [15_34]	4	9				

Compound	inhibition at 100 µM (ecNadD) [%]	inhibition at 50 µM (baNadD) [%]	IC50 (ecNadD) [µM]	IC50 (baNadD) [µM]	[…]. coli (ecNadD) [%]	[…]. anthracis (baNadD) [%]
CC(=O)c1cccc(N/C=C2\C(=O)Nc3ccccc32)c1 [15_35]	4	19				
Cc1cccc(C)c1N/C=C1\C(=O)Nc2ccccc21 [15_36]	4	11				
COc1cccc(N/C=C2\C(=O)Nc3ccccc32)c1 [15_37]	4	1				
Cc1ccc(CN/C=C2\C(=O)Nc3ccccc32)cc1 [15_38]	3	17				
CC(N/C=C1\C(=O)Nc2ccccc21)c1ccccc1 (stereo not shown) [15_39]	3	18				
O=C1Nc2ccccc2/C1=C/Nc1ccccc1C(=O)O [15_40]	1	0				
CCc1cccc(C)c1N/C=C1\C(=O)Nc2ccccc21 [15_41]	0	13				
CC(=O)c1ccc(N/C=C2/C(=O)Nc3ccccc32)cc1 [15_42]	0	11				
O=C(CCC(=O)Nc1ccc(I)cc1)N/N=C/c1c2ccccc2cc2ccccc12 [compound 001]	79	88	15	21		
S=C(N/N=C/c1ccccc1Cl)Nc1cc(Cl)ccc1Cl [compound 002]					76	85
Nc1c(C(=O)Nc2cccc(Cl)c2Cl)sc2nc(-c3cccs3)ccc12 [compound 003]	73	40				
O=C(O)c1cc([N+](=O)[O-])ccc1Sc1cccs1 [compound 005]					71	44
Brc1cnc2nc(/C=C/c3ccccc3)[nH]c2c1 [compound 006]					62	34
O=C1NC(=O)/C(=C\c2ccc(C(=O)O)cc2)N1 [compound 007]					54	34
CC(=O)Nc1ccc(S(=O)(=O)Nc2ccc(Cl)cc2Cl)cc1 [compound 008]					47	0
COC(=O)c1sc(NC(=O)/C=C/C(=O)O)nc1C [compound 009]					45	0
NS(=O)(=O)c1ccc(Nc2nc(-c3ccc(O)c(O)c3)cs2)cc1 [compound 010]					32	89
O=C(Nc1ncccn1)c1sc2ccccc2c1Cl [compound 011]					31	0
